Experimental data taken from patent US20240327429A1, “[1,3]Thiazolo[4,5-d]-pyrimidon-7-ones as inhibitors of NOX4” (Boehringer Ingelheim International GmbH, priority 2023, published 2024).
“And” between values parts separate entries of the source, which are not always exact repeats. Equal entries are not always repeated.

Experiments:
human NOX3 (hNOX3) = molecular target: T1, human NOX3 (hNOX3) (Homo sapiens, UniProt Q9HBY0); assay: NOX3 inhibition assay (L-012), HEK293 cells stably overexpressing human NOX3; format: cell-based; conditions: HEK293-hNOX3, PMA stimulated
T1 construct: pLV-CMV-hNOX3-puro (NM_015718.3); host or cells: HEK293 (CLS GmbH), lentiviral transduction
T1 sequence (Q9HBY0 1-568): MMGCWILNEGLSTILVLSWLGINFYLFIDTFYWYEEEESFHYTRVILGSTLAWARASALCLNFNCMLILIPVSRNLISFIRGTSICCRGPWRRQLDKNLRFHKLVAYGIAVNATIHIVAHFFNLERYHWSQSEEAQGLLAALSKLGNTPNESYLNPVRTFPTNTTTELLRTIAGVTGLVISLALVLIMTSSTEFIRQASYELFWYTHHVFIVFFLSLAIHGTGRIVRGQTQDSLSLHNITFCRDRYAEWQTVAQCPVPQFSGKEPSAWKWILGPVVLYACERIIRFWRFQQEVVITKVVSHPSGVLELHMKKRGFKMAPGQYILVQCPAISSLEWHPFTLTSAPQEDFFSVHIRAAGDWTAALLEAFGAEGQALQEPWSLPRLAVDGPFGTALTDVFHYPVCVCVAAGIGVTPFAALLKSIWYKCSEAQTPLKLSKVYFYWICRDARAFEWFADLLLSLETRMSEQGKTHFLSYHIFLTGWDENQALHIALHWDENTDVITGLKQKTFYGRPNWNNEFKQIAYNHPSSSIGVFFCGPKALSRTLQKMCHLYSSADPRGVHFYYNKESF
T1 sequence (P13498 2-195 partner limits assumed): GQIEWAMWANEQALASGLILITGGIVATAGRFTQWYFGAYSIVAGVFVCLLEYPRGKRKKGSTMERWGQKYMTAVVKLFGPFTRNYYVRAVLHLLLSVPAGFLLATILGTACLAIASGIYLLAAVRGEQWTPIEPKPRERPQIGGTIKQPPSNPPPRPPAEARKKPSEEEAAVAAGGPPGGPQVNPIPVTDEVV
Excerpt: Plasmids are Purchased from Vectorbuilder. • for HEK-hNOX1 all necessary subunits are cloned accordingly: • pLV-CMV-hNOX1-puro (NM_007052.5) • pLV-CMV-hNOXO1-blas (NM_172168.3) • pLV-CMV-hp22phox-hygro (NM_000101.4) • pLV-CMV-hNOXA1-neo (NM_006647.2) • for HEK-hNOX3 • pLV-CMV-hNOX3-puro (NM_015718.3)
3rd generation lentiviral particles are produced in HEK293 suspension cells by transient transfection of three helper and expression plasmids. Crucial lentivirus supernatants are harvested, clarified by filtration and concentrated by precipitation. Lentivirus titers are determined in transducing units in (TU/mL) by transduction of HT1080 cells and colony forming assay. Parental HEK293 cells, purchased from CLS GmbH, are transduced with replication-incompetent 3rd generation lentiviral particles (MOI 2) and expanded for at least 2 weeks before cryopreservation of tested lots. During cultivation, medium is changed three times per week and cells are sub-cultured at least once per week. Selection antibiotics are added according to the plasmids (1 μg/ml puromycin, 1.5 μg/ml blasticidin, 200 μg/ml G418 and 100 μg/ml hygromycin).
Evaluation of the NOX4 inhibitors on NOX3 activity is assessed in HEK293 cells stably overexpressing human NOX3 (hNOX3).
Cells are seeded in 384 well plates for 2 days. […] Cells are then stimulated with PMA at 0.1 μM to induce NOX3-dependent ROS production. […] Luminescence is measured with an PHERAstar multimode reader.

human NOX4 (hNOX4) = molecular target: T2, human NOX4 (hNOX4) (Homo sapiens, UniProt Q9NPH5); assay: cell-based
T2 sequence (Q9NPH5 1-578): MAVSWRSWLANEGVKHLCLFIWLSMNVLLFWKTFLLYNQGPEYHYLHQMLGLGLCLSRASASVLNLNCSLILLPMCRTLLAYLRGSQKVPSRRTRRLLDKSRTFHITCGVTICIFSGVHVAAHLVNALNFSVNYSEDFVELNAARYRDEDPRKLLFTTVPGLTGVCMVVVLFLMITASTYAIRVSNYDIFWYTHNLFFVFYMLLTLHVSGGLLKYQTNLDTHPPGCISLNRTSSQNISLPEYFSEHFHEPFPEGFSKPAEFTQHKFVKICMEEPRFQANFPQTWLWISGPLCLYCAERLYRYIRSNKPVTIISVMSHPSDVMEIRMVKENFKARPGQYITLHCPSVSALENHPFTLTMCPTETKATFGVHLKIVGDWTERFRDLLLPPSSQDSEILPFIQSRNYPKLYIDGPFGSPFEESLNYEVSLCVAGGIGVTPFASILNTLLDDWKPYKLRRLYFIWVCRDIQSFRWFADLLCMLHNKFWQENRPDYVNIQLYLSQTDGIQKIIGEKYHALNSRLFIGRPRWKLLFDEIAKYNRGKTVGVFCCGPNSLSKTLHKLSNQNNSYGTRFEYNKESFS
T2 sequence (P13498 2-195 partner limits assumed): T1 sequence (P13498 2-195 partner limits assumed)
Protocol: The synthetic gene phNOX4_DNA3_1_Zeo (Accession: AAF68973) is assembled from synthetic oligonucleotides and/or PCR products. The fragment is cloned into pcDNA3.1_Zeo_A011 using NheI and XhoI cloning sites. The plasmid DNA is purified from transformed bacteria and its concentration is determined by UV spectroscopy. The final construct is verified by sequencing. The plasmid is transfected via electroporation (Amaxa electroporation device) in combination with Nucleofector Kit V. Selection of NOX4 overexpressing genes is achieved using selection antibiotic Zeocin.
The inhibitory activity of the example compounds of the invention is determined using the following procedure:
Cells are cultured in the Dulbecco's Modified Eagle Medium (DMEM) media containing 4.5 g/L glucose supplemented with 10% fetal calf serum and 250 μg/ml Zeocin in an incubator at 37° C. with 5% CO2. For the assay, cells are seeded in 384 well plates.
After incubation Lumigen HyPerBlu™ is added and cells are incubated for additional 30 min at 24° C. in a humidified incubator. Next, luminescence is measured using an Envision Multimode Plate reader to determine levels of produced H2O2 in the wells.

| Compound | IC50 (human NOX3 (hNOX3)) | IC50 (human NOX4 (hNOX4)) |
| --- | --- | --- |
| Cc1cc(Cl)ccc1CSc1nc2ncsc2c(=O)n1-c1ccc(O)nc1 [Example 23] | > 100 µM | 96 nM |
| Cc1cc(F)cc(C)c1CSc1nc2ncsc2c(=O)n1-c1ccc(O)nc1 [Example 24] | > 100 µM | 98 nM |
| O=c1c2scnc2nc(SCc2ccc(Cl)cc2)n1-c1ccc(O)nc1 [Example 25] | > 100 µM | 100 nM and 101 nM |
| O=c1c2scnc2nc(SCc2ccc(C(F)(F)F)cc2F)n1-c1ccc(O)nc1 [Example 26] | 62.1 µM | 120 nM |
| O=c1c2scnc2nc(SCc2ccc(C(F)(F)F)cc2)n1-c1ccc(O)nc1 [Example 27] | 86.8 µM | 135 nM |
| O=c1c2scnc2nc(SCc2c(F)cc(F)cc2F)n1-c1ccc(O)nc1 [Example 28] | > 100 µM | 136 nM |
| Cc1cc(F)ccc1CSc1nc2ncsc2c(=O)n1-c1ccc(O)nc1 [Example 29] | > 100 µM | 150 nM and 145 nM |
| O=c1c2scnc2nc(SCc2ccc(F)cc2)n1-c1ccc(O)nc1 [Example 30] | 98.1 µM | 539 nM |
| O=c1c2scnc2nc(SCc2c(F)cc(F)cc2F)n1-c1cnc(O)c(F)c1 [Example 31, 6-(5-Fluoro-6-hydroxypyridin-3-yl)-5-((2,4,6-trifluorobenzyl)thio)thiazolo[4,5-d]-pyrimidin-7(6H)-one] | > 100 µM | 60 nM |
| O=c1c2scnc2nc(SCc2ccc(C(F)(F)F)cc2)n1-c1cnc(O)c(F)c1 [Example 32, 6-(5-Fluoro-6-hydroxypyridin-3-yl)-5-((4-(trifluoromethyl)benzyl)thio)thiazolo[4,5-d]pyrimidin-7(6H)-one] | 38 µM | 40 nM |
| O=c1c2scnc2nc(SCc2ccc(Cl)cc2)n1-c1cnc(O)c(F)c1 [Example 33] | > 100 µM | 29 nM |
| O=c1c2scnc2nc(SCc2ccc(Br)cc2F)n1-c1cnc(O)c(F)c1 [Example 34] | 63.6 µM | 29 nM |
| O=c1c2scnc2nc(SCc2ccc(Cl)cc2F)n1-c1cnc(O)c(F)c1 [Example 35] | 39.9 µM | 33 nM |
| Cc1cc(F)ccc1CSc1nc2ncsc2c(=O)n1-c1cnc(O)c(F)c1 [Example 36] | 87.9 µM | 34 nM |
| Cc1cc(Cl)ccc1CSc1nc2ncsc2c(=O)n1-c1cnc(O)c(F)c1 [Example 37] | 70.4 µM | 34 nM |
| O=c1c2scnc2nc(SCc2ccc(F)cc2F)n1-c1cnc(O)c(F)c1 [Example 38] | > 100 µM | 48 nM |
| O=c1c2scnc2nc(SCc2ccc(Cl)cc2Cl)n1-c1cnc(O)c(F)c1 [Example 39] | 56.2 µM | 56 nM |
| Cc1c(F)cccc1CSc1nc2ncsc2c(=O)n1-c1cnc(O)c(F)c1 [Example 40] | 39.2 µM | 59 nM |
| O=c1c2scnc2nc(SCc2c(F)cc(F)cc2Cl)n1-c1cnc(O)c(F)c1 [Example 41] | 32.3 µM | 60 nM |
| O=c1c2scnc2nc(SCc2ccc(C(F)(F)F)cc2F)n1-c1cnc(O)c(F)c1 [Example 42] | 46.4 µM | 62 nM |
| Cc1cc(F)cc(C)c1CSc1nc2ncsc2c(=O)n1-c1cnc(O)c(F)c1 [Example 43] | > 100 µM | 63 nM |
| O=c1c2scnc2nc(SCc2ccc(F)cc2Br)n1-c1cnc(O)c(F)c1 [Example 44] | 73.1 µM | 63 nM |
